The target in experiment [1] is T1, DENV2 NS2B/NS3pro (Dengue virus type 2, UniProt P14340). The experiment is described as follows: Surface plasmon resonance dissociation constant. It is filed as binding. For orientation: SPR reads the build-up and loss of mass on a sensor chip optically.
For experiment [2], the target named is T2, YFV NS2B/NS3pro (Yellow fever virus, UniProt Q1X881). The experiment is described as follows: biochemical.
The target of experiment [3] is T3, ZIKV NS2B/NS3pro (Zika virus, UniProt A0A024B7W1). The experiment is described as follows: biochemical.
T3 sequence (A0A024B7W1 1421-1467): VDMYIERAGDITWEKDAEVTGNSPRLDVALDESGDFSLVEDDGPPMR
T3 sequence (A0A024B7W1 1503-1672): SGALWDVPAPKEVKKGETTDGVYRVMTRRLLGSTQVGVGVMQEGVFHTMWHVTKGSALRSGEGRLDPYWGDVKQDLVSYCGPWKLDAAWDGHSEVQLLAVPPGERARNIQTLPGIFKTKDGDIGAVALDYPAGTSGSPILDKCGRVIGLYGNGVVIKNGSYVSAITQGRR
Experiment [4] has as its target T1, DENV2 NS2B/NS3pro. The experiment is described as follows: biochemical.
Experiment [5] addresses T2, YFV NS2B/NS3pro. Briefly: biochemical. The experiment is classed as binding.
For experiment [6], the target named is T3, ZIKV NS2B/NS3pro. It is filed as binding.
Experiment [7] concerns the target T4, WNV NS2B/NS3pro (West Nile virus, UniProt P06935). The experiment is described as follows: biochemical. The experiment is classed as biochemical.
The target in experiment [8] is T3, ZIKV NS2B/NS3pro. Briefly: Surface plasmon resonance dissociation constant. The experiment is classed as binding.
For experiment [9], the target named is T1, DENV2 NS2B/NS3pro. The experiment is classed as binding.
The target in experiment [10] is T2, YFV NS2B/NS3pro. The experiment is classed as binding.
The target of experiment [11] is T4, WNV NS2B/NS3pro. The experiment is described as follows: Surface plasmon resonance dissociation constant. The experiment is classed as binding.
For experiment [12], the target named is T3, ZIKV NS2B/NS3pro. Conditions: Li and collaborators; cited from earlier work.

Read-outs that look alike come from different tables or passages of the source.

T2 sequence (Q1X881 1402-1449 limits assumed): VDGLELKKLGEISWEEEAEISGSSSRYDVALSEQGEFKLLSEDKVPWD
T2 sequence (Q1X881 1491-1660 limits assumed): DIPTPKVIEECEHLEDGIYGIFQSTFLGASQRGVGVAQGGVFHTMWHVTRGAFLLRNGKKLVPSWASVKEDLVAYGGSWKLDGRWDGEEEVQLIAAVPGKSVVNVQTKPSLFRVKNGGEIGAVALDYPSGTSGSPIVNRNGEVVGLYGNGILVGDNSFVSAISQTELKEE
T1 sequence (P14340 1394-1440 limits assumed): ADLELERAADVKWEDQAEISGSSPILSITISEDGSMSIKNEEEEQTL
T1 sequence (P14340 1476-1660 limits assumed): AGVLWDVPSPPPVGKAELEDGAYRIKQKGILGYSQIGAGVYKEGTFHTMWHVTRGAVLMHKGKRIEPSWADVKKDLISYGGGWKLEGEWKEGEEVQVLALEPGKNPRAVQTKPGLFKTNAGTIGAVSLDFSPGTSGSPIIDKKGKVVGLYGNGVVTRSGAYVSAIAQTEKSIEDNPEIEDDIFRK
T4 sequence (P06935 1420-1465): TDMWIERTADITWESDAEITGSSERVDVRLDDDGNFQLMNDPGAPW
T4 sequence (P06935 1502-1671): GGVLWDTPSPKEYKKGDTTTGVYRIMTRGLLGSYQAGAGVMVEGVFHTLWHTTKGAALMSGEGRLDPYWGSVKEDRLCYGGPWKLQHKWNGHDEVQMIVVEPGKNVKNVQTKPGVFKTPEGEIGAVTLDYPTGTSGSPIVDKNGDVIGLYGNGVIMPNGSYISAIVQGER

As to `Oc1cc(O)c2c(c1)O[C@H](c1cc(O)c(O)c(O)c1)[C@H](O)C2` [EGC, epigallocatechin], the Kd (usually the constant that tells how readily two partners part at equilibrium) at DENV2 NS2B/NS3pro [1] worked out at 0.03 µM; at YFV NS2B/NS3pro [5], 0.27 µM; at ZIKV NS2B/NS3pro [8] it was 0.02 µM; on WNV NS2B/NS3pro [11] it was 0.22 µM. For the same compound, the IC50 (in general, the concentration that inhibits the measured activity by half) against YFV NS2B/NS3pro [2] turned out to be 19 ± 1.9 µM; at ZIKV NS2B/NS3pro [3], 8.9 ± 1.2 µM; at DENV2 NS2B/NS3pro [4] it was 145 ± 3 µM; on WNV NS2B/NS3pro [7] it was 17.3 ± 2.5 µM. Further, the “Inhibition Mode” value at YFV NS2B/NS3pro [2], on ZIKV NS2B/NS3pro [3], on DENV2 NS2B/NS3pro [4] and at WNV NS2B/NS3pro [7] was “Competitive” throughout. The “Trp emission band after titration of the molecule (excitation shift)” value on ZIKV NS2B/NS3pro [6], on DENV2 NS2B/NS3pro [9] and on YFV NS2B/NS3pro [10] was “no excitation shift” each time.
For `O=C(O[C@@H]1Cc2c(O)cc(O)cc2O[C@@H]1c1ccc(O)c(O)c1)c1cc(O)c(O)c(O)c1` [ECG, epicatechin gallate], at ZIKV NS2B/NS3pro [12], the IC50 was 89 µM.
As for `CC(=O)Oc1cc(OC(C)=O)c2c(c1)O[C@H](c1cc(OC(C)=O)c(OC(C)=O)c(OC(C)=O)c1)[C@H](OC(=O)c1cc(OC(C)=O)c(OC(C)=O)c(OC(C)=O)c1)C2` [AcEGCG, EGCG octaacetate], the Kd on DENV2 NS2B/NS3pro [1] was 2.4 µM; at YFV NS2B/NS3pro [5], 0.47 µM; at ZIKV NS2B/NS3pro [8], 4.8 µM; at WNV NS2B/NS3pro [11], 0.98 µM. For the same compound, the IC50 was 39.1 ± 2.2 µM against YFV NS2B/NS3pro [2], 102 ± 2.6 µM against ZIKV NS2B/NS3pro [3], 39.8 ± 2.5 µM at DENV2 NS2B/NS3pro [4] and 83.4 ± 10.4 µM at WNV NS2B/NS3pro [7]. The “Inhibition Mode” value at YFV NS2B/NS3pro [2], on ZIKV NS2B/NS3pro [3], at DENV2 NS2B/NS3pro [4] and at WNV NS2B/NS3pro [7] was “Noncompetitive” in each case. Also, the “Trp emission band after titration of the molecule (excitation shift)” value at ZIKV NS2B/NS3pro [6], at DENV2 NS2B/NS3pro [9] and at YFV NS2B/NS3pro [10] was 360 nm in each case.
Regarding `O=C(O[C@@H]1Cc2c(O)cc(O)cc2O[C@@H]1c1cc(O)c(O)c(O)c1)c1cc(O)c(O)c(O)c1` [EGCG, Epigallocatechin gallate], the dissociation constant Kd on DENV2 NS2B/NS3pro [1] came to 0.07 µM; on YFV NS2B/NS3pro [5], 0.06 µM; on ZIKV NS2B/NS3pro [8], 0.09 µM. Also, the IC50 at YFV NS2B/NS3pro [2] came to 8 ± 1.4 µM; against ZIKV NS2B/NS3pro [3] it was 4.5 ± 0.6 µM; at DENV2 NS2B/NS3pro [4] it was 6.3 ± 1 µM. Further, the “Inhibition Mode” value at YFV NS2B/NS3pro [2], at ZIKV NS2B/NS3pro [3], at DENV2 NS2B/NS3pro [4] and on WNV NS2B/NS3pro [7] was “Noncompetitive” each time.

The values above are taken from paper PMC10053286, “The Importance of Epigallocatechin as a Scaffold for Drug Development against Flaviviruses” (Pharmaceutics, 2023).
